# Measured values published in patent US9833497B2, “Human originated EGF domain proteins and use of the same” (CHENGDU SOURCEBIO LIMITED-LIABILITY COMPANY, priority 2013, dated 2017).
# How the values were obtained:
# Format in all cases: cell-based
# Proteus mirabilis = assay: MIC against Gram-negative bacteria: Proteus mirabilis; details: 5×10^5 CFU/mL
# In short: (§1)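 Inocula prepared by growing LB cultures at 37° C to 0.5 McFarland, centrifuging at 4000×g, and resuspending in fresh medium. Final density 5×10^5 CFU/mL per well with two-fold dilutions of purified EGF domain protein; shaking incubation at 37° C.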
# Enterobacter cloacae = assay: MIC against Gram-negative bacteria: Enterobacter cloacae; details: 5×10^5 CFU/mL
# In short: as §1
# Serratia marcescens = assay: MIC against Gram-negative bacteria: Serratia marcescens; details: 5×10^5 CFU/mL
# In short: as §1
# Citrobacter diversus = assay: MIC against Gram-negative bacteria: Citrobacter diversus; details: 5×10^5 CFU/mL
# In short: as §1
# Proteus vulgaris = assay: MIC against Gram-negative bacteria: Proteus vulgaris; details: 5×10^5 CFU/mL
# In short: as §1
# Klebsiella pneumonia = assay: MIC against Gram-negative bacteria: Klebsiella pneumonia; details: 5×10^5 CFU/mL
# In short: as §1
# E. coli BL21 = assay: MIC against Gram-negative bacteria: E. coli BL21; details: 5×10^5 CFU/mL
# In short: as §1
# E. coli DH5α = assay: Antibacterial activity: MIC and growth curve against E. coli DH5α in 96-well plate; details: minimal inhibitory concentration against E. coli DH5α; 96-well plate, 5×10^5 CFU/mL, 37° C., judged after 8 h
# In short: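 Log-phase bacteria (OD600 ~0.5) resuspended in LB at 5×10^5 CFU/mL, exposed to recombinant protein at 50, 25, 12.5 μg/mL final in triplicate, 37 °C shaking at 175 rpm. OD600 read every 30 min; MIC is lowest concentration showing no growth.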
# Pseudomonas aeruginosa = assay: MIC against Gram-negative bacteria: Pseudomonas aeruginosa; details: 5×10^5 CFU/mL
# In short: as §1
# Moraxella catarrhalis = assay: MIC against Gram-negative bacteria: Moraxella catarrhalis; details: 5×10^5 CFU/mL
# In short: as §1
# Aeromonas hydrophila = assay: MIC against Gram-negative bacteria: Aeromonas hydrophila; details: 5×10^5 CFU/mL
# In short: as §1
# [1] = 10 h cultivation at 37° C., two-fold serial dilution
# [2] = P. mirabilis, 10 h cultivation at 37° C.
# [3] = E. cloacae, 10 h cultivation at 37° C.
# [4] = S. marcescens, 10 h cultivation at 37° C.
# [5] = C. diversus, 10 h cultivation at 37° C.
# [6] = P. vulgaris, 10 h cultivation at 37° C.
# [7] = K. pneumonia, 10 h cultivation at 37° C.
# [8] = E. coli BL21, 10 h cultivation at 37° C.
# [9] = P. aeruginosa, 10 h cultivation at 37° C.
# [10] = M. catarrhalis, 10 h cultivation at 37° C.
# [11] = A. hydrophila, 10 h cultivation at 37° C.
substance,measurement,setting,value
PRT518 (CACPLNIPSNNFSPTCHLDRSLGLICDGCPVGYTGPRCERCAEGYFGQPSVPGGSCQP; listed as Homo sapiens),MIC against P. mirabilis,"Proteus mirabilis; 96-well plate, 37° C., 10 h",12.5 µg/mL
same,MIC against E. cloacae,"Enterobacter cloacae; 96-well plate, 37° C., 10 h",50 µg/mL
same,MIC against S. marcescens,"Serratia marcescens; 96-well plate, 37° C., 10 h",12.5 µg/mL
same,MIC against C. diversus,"Citrobacter diversus; 96-well plate, 37° C., 10 h",12.5 µg/mL
same,MIC against P. vulgaris,"Proteus vulgaris; 96-well plate, 37° C., 10 h",25 µg/mL
same,MIC against K. pneumonia,"Klebsiella pneumonia; 96-well plate, 37° C., 10 h",25 µg/mL
same,MIC against E. coli BL21,"E. coli BL21; 96-well plate, 37° C., 10 h",25 µg/mL
same,MIC,E. coli DH5α,50 µg/mL
same,MIC against P. aeruginosa,"Pseudomonas aeruginosa; 96-well plate, 37° C., 10 h",12.5 µg/mL
same,MIC against M. catarrhalis,"Moraxella catarrhalis; 96-well plate, 37° C., 10 h",25 µg/mL
same,MIC against A. hydrophila,"Aeromonas hydrophila; 96-well plate, 37° C., 10 h",25 µg/mL
PRT1171 (NTNDCSPHPCYNSGTCVDGDNWYRCECAPGFAGPDCR; listed as Homo sapiens),MIC P. mirabilis,Proteus mirabilis; [1],12.5 µg/mL
same,MIC E. cloacae,Enterobacter cloacae; [1],12.5 µg/mL
same,MIC S. marcescens,Serratia marcescens; [1],25 µg/mL
same,MIC C. diversus,Citrobacter diversus; [1],12.5 µg/mL
same,MIC P. vulgaris,Proteus vulgaris; [1],50 µg/mL
same,MIC K. pneumonia,Klebsiella pneumonia; [1],12.5 µg/mL
same,MIC E. coli BL21,E. coli BL21; [1],12.5 µg/mL
same,MIC,E. coli DH5α,12.5 µg/mL
same,MIC P. aeruginosa,Pseudomonas aeruginosa; [1],25 µg/mL
same,MIC M. catarrhalis,Moraxella catarrhalis; [1],50 µg/mL
same,MIC A. hydrophila,Aeromonas hydrophila; [1],12.5 µg/mL
PRT420 (DIDECVTGIHNCSINETCFNIQGGFRCLAFECPENYRRSAATLQQEKTDTVRCI; listed as Homo sapiens),MIC,Proteus mirabilis; [2],50 µg/mL
same,MIC,Enterobacter cloacae; [3],50 µg/mL
same,MIC,Serratia marcescens; [4],50 µg/mL
same,MIC,Citrobacter diversus; [5],50 µg/mL
same,MIC,Proteus vulgaris; [6],100 µg/mL
same,MIC,Klebsiella pneumonia; [7],25 µg/mL
same,MIC,E. coli BL21; [8],25 µg/mL
same,MIC,E. coli DH5α,50 µg/mL
same,MIC,Pseudomonas aeruginosa; [9],12.5 µg/mL
same,MIC,Moraxella catarrhalis; [10],12.5 µg/mL
same,MIC,Aeromonas hydrophila; [11],12.5 µg/mL
PRT719 (CNNPCEQFNGGCSHICAPGPNGAECQCPHEGNWYLANNRKHCI; listed as Homo sapiens),MIC P. mirabilis,"Proteus mirabilis; 96-well plate, 37° C., 10 h",50 µg/mL
same,MIC E. cloacae,"Enterobacter cloacae; 96-well plate, 37° C., 10 h",50 µg/mL
same,MIC S. marcescens,"Serratia marcescens; 96-well plate, 37° C., 10 h",50 µg/mL
same,MIC C. diversus,"Citrobacter diversus; 96-well plate, 37° C., 10 h",50 µg/mL
same,MIC P. vulgaris,"Proteus vulgaris; 96-well plate, 37° C., 10 h",50 µg/mL
same,MIC K. pneumonia,"Klebsiella pneumonia; 96-well plate, 37° C., 10 h",12.5 µg/mL
same,MIC E. coli BL21,"E. coli BL21; 96-well plate, 37° C., 10 h",12.5 µg/mL
same,MIC,E. coli DH5α,50 µg/mL
same,MIC P. aeruginosa,"Pseudomonas aeruginosa; 96-well plate, 37° C., 10 h",50 µg/mL
same,MIC M. catarrhalis,"Moraxella catarrhalis; 96-well plate, 37° C., 10 h",50 µg/mL
same,MIC A. hydrophila,"Aeromonas hydrophila; 96-well plate, 37° C., 10 h",12.5 µg/mL
PRT884 (HSDPCENNPCLHGGTCNANGTMYGCSCDQGFAGENCE; listed as Homo sapiens),MIC (μg/mL) P. mirabilis,Proteus mirabilis; [2],25 µg/mL
same,MIC (μg/mL) E. cloacae,Enterobacter cloacae; [3],12.5 µg/mL
same,MIC (μg/mL) S. marcescens,Serratia marcescens; [4],25 µg/mL
same,MIC (μg/mL) C. diversus,Citrobacter diversus; [5],12.5 µg/mL
same,MIC (μg/mL) P. vulgaris,Proteus vulgaris; [6],50 µg/mL
same,MIC (μg/mL) K. pneumonia,Klebsiella pneumonia; [7],12.5 µg/mL
same,MIC (μg/mL) E. coli BL21,E. coli BL21; [8],12.5 µg/mL
same,MIC,E. coli DH5α,12.5 µg/mL
same,MIC (μg/mL) P. aeruginosa,Pseudomonas aeruginosa; [9],12.5 µg/mL
same,MIC (μg/mL) M. catarrhalis,Moraxella catarrhalis; [10],12.5 µg/mL
same,MIC (μg/mL) A. hydrophila,Aeromonas hydrophila; [11],12.5 µg/mL
PRT1045 (HGPGCQEHCLCLHGGVCQATSGLCQCAPGYTGPHCA; listed as Homo sapiens),MIC P. mirabilis,Proteus mirabilis; [1],12.5 µg/mL
same,MIC E. cloacae,Enterobacter cloacae; [1],12.5 µg/mL
same,MIC S. marcescens,Serratia marcescens; [1],50 µg/mL
same,MIC C. diversus,Citrobacter diversus; [1],50 µg/mL
same,MIC P. vulgaris,Proteus vulgaris; [1],50 µg/mL
same,MIC K. pneumonia,Klebsiella pneumonia; [1],50 µg/mL
same,MIC E. coli BL21,E. coli BL21; [1],50 µg/mL
same,MIC,E. coli DH5α,25 µg/mL
same,MIC P. aeruginosa,Pseudomonas aeruginosa; [1],25 µg/mL
same,MIC M. catarrhalis,Moraxella catarrhalis; [1],50 µg/mL
same,MIC A. hydrophila,Aeromonas hydrophila; [1],50 µg/mL
PRT802 (SNRCQCQNGALCNPITGACVCAAGFRGWRCE; listed as Homo sapiens),MIC (μg/mL) P. mirabilis,Proteus mirabilis; [2],25 µg/mL
same,MIC (μg/mL) E. cloacae,Enterobacter cloacae; [3],12.5 µg/mL
same,MIC (μg/mL) S. marcescens,Serratia marcescens; [4],12.5 µg/mL
same,MIC (μg/mL) C. diversus,Citrobacter diversus; [5],25 µg/mL
same,MIC (μg/mL) P. vulgaris,Proteus vulgaris; [6],25 µg/mL
same,MIC (μg/mL) K. pneumonia,Klebsiella pneumonia; [7],12.5 µg/mL
same,MIC (μg/mL) E. coli BL21,E. coli BL21; [8],12.5 µg/mL
same,MIC,E. coli DH5α,12.5 µg/mL
same,MIC (μg/mL) P. aeruginosa,Pseudomonas aeruginosa; [9],25 µg/mL
same,MIC (μg/mL) M. catarrhalis,Moraxella catarrhalis; [10],12.5 µg/mL
same,MIC (μg/mL) A. hydrophila,Aeromonas hydrophila; [11],12.5 µg/mL
PRT1221 (DINECLQSPCKNGAICQNFPGSFNCVCKTGYTGKMCE; listed as Homo sapiens),MIC against P. mirabilis,"Proteus mirabilis; Proteus mirabilis, 96-well plate, 37° C., 10 h",25 µg/mL
same,MIC against E. cloacae,"Enterobacter cloacae; Enterobacter cloacae, 96-well plate, 37° C., 10 h",50 µg/mL
same,MIC against S. marcescens,"Serratia marcescens; Serratia marcescens, 96-well plate, 37° C., 10 h",50 µg/mL
same,MIC against C. diversus,"Citrobacter diversus; Citrobacter diversus, 96-well plate, 37° C., 10 h",12.5 µg/mL
same,MIC against P. vulgaris,"Proteus vulgaris; Proteus vulgaris, 96-well plate, 37° C., 10 h",12.5 µg/mL
same,MIC against K. pneumonia,"Klebsiella pneumonia; Klebsiella pneumonia, 96-well plate, 37° C., 10 h",25 µg/mL
same,MIC against E. coli BL21,"E. coli BL21; E. coli BL21, 96-well plate, 37° C., 10 h",12.5 µg/mL
same,MIC,E. coli DH5α,25 µg/mL
same,MIC against P. aeruginosa,"Pseudomonas aeruginosa; Pseudomonas aeruginosa, 96-well plate, 37° C., 10 h",25 µg/mL
same,MIC against M. catarrhalis,"Moraxella catarrhalis; Moraxella catarrhalis, 96-well plate, 37° C., 10 h",50 µg/mL
same,MIC against A. hydrophila,"Aeromonas hydrophila; Aeromonas hydrophila, 96-well plate, 37° C., 10 h",25 µg/mL
PRT1418 (IAHYLDRVVKEGCPGLCNGNGRCTLDLNGWHCVCQLGWRGAGCD; listed as Homo sapiens),MIC against P. mirabilis,"Proteus mirabilis; Proteus mirabilis, 10 h cultivation at 37° C.",12.5 µg/mL
same,MIC against E. cloacae,"Enterobacter cloacae; Enterobacter cloacae, 10 h cultivation at 37° C.",25 µg/mL
same,MIC against S. marcescens,"Serratia marcescens; Serratia marcescens, 10 h cultivation at 37° C.",25 µg/mL
same,MIC against C. diversus,"Citrobacter diversus; Citrobacter diversus, 10 h cultivation at 37° C.",12.5 µg/mL
same,MIC against P. vulgaris,"Proteus vulgaris; Proteus vulgaris, 10 h cultivation at 37° C.",50 µg/mL
same,MIC against K. pneumonia,"Klebsiella pneumonia; Klebsiella pneumonia, 10 h cultivation at 37° C.",50 µg/mL
same,MIC against E. coli BL21,E. coli BL21; [8],12.5 µg/mL
same,MIC,E. coli DH5α,25 µg/mL
same,MIC against P. aeruginosa,"Pseudomonas aeruginosa; Pseudomonas aeruginosa, 10 h cultivation at 37° C.",25 µg/mL
same,MIC against M. catarrhalis,"Moraxella catarrhalis; Moraxella catarrhalis, 10 h cultivation at 37° C.",50 µg/mL
same,MIC against A. hydrophila,"Aeromonas hydrophila; Aeromonas hydrophila, 10 h cultivation at 37° C.",25 µg/mL
PRT874 (CNCNQIGSVHDRCNETGFCECREGAAGPKCDDCLPTHYWRQGCYP; listed as Homo sapiens),MIC (μg/mL) P. mirabilis,Proteus mirabilis; [2],12.5 µg/mL
same,MIC (μg/mL) E. cloacae,Enterobacter cloacae; [3],12.5 µg/mL
same,MIC (μg/mL) S. marcescens,Serratia marcescens; [4],12.5 µg/mL
same,MIC (μg/mL) C. diversus,Citrobacter diversus; [5],12.5 µg/mL
same,MIC (μg/mL) P. vulgaris,Proteus vulgaris; [6],12.5 µg/mL
same,MIC (μg/mL) K. pneumonia,Klebsiella pneumonia; [7],12.5 µg/mL
same,MIC (μg/mL) E. coli BL21,E. coli BL21; [8],25 µg/mL
same,MIC,E. coli DH5α,12.5 µg/mL
same,MIC (μg/mL) P. aeruginosa,Pseudomonas aeruginosa; [9],12.5 µg/mL
same,MIC (μg/mL) M. catarrhalis,Moraxella catarrhalis; [10],25 µg/mL
same,MIC (μg/mL) A. hydrophila,Aeromonas hydrophila; [11],12.5 µg/mL
